Measured values: ChEMBL document CHEMBL1128756, “The discovery of CP-96,021 and CP-96,486, balanced, combined, potent and orally active leukotriene D4 (LTD4)/platelet activating factor (PAF) receptor antagonists” (Bioorg Med Chem Lett, 1995)

What was measured:
[1] = target: T1, Adrenergic receptor alpha-1 (Homo sapiens, UniProt P35348+P25100+P35368); assay: Inhibitory concentration against Alpha-1 adrenergic receptor; assay type: protein assay
T1 sequence (P35348 whole entry): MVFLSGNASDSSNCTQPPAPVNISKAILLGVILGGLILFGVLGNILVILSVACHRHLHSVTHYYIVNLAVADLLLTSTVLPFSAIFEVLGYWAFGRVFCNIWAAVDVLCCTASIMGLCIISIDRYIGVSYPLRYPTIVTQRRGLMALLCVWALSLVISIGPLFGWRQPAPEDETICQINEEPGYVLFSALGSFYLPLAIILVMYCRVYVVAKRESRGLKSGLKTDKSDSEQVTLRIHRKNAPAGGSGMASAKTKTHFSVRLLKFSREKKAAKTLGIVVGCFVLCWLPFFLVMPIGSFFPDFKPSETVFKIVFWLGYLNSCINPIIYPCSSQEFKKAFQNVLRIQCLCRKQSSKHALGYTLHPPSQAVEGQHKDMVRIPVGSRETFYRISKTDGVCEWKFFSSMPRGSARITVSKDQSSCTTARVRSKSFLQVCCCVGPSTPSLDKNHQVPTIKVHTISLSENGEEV
T1 sequence (P25100 whole entry): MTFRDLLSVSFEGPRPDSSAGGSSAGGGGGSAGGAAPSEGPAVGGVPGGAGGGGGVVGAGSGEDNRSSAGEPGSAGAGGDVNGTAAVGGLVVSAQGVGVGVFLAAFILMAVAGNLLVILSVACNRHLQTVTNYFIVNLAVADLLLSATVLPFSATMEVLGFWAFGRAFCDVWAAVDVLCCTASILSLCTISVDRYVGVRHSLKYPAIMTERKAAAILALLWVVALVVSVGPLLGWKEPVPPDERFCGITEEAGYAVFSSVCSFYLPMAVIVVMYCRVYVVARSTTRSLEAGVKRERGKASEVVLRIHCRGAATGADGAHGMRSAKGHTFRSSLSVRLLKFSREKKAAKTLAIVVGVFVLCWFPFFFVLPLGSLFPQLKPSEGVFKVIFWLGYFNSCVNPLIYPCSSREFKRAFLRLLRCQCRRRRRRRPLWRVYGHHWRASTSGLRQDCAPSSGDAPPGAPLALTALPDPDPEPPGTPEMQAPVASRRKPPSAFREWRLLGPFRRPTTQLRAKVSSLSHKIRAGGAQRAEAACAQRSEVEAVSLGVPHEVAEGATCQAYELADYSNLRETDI
T1 sequence (P35368 whole entry): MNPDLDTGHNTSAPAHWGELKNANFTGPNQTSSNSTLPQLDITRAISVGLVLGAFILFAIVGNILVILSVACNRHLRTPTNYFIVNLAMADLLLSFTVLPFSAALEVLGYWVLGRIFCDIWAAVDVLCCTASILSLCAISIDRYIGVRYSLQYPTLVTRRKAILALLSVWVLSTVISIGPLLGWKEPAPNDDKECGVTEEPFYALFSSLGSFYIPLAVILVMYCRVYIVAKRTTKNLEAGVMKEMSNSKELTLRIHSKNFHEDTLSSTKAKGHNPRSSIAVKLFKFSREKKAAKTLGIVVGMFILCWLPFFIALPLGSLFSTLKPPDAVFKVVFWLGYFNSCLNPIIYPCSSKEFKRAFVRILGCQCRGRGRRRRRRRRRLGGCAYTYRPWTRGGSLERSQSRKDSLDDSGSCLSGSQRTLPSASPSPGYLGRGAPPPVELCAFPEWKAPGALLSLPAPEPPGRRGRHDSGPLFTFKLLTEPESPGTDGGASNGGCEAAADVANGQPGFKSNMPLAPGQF

[2] = target: T2, Adenosine receptor A1 (Homo sapiens, UniProt P30542); assay: Inhibitory concentration against Adenosine A1 receptor
T2 sequence (P30542 whole entry): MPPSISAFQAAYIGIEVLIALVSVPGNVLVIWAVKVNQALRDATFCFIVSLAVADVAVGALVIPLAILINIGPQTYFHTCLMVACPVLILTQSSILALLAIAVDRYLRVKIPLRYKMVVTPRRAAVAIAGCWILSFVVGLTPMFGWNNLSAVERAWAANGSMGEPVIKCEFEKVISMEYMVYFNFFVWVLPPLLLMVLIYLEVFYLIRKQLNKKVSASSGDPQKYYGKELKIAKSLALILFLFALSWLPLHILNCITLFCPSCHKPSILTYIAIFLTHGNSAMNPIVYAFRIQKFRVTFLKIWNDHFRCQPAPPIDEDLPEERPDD

[3] = target: Histamine H1 receptor (Homo sapiens, UniProt P35367); assay: Inhibitory concentration against H1 receptor
[4] = target: T3, Cysteinyl leukotriene receptor 1 (Cavia porcellus, UniProt Q2NNR5); assay: Displacement of [3H]LTD4 from receptor in guinea pig lung membranes; assay type: cell membranes, Membrane
T3 sequence (Q2NNR5 whole entry): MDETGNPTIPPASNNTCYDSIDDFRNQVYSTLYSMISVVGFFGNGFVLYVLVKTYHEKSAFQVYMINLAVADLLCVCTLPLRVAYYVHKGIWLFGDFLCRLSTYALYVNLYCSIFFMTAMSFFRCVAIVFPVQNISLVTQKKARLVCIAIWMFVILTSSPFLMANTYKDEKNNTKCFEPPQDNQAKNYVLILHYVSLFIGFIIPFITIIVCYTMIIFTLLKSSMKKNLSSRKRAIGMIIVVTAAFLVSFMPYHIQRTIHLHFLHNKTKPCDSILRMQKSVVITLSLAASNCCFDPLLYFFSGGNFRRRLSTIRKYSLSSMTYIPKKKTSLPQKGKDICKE

[5] = tested on: Cavia porcellus; assay: Combined airway obstructive effect against LTD4 stimulated by aerosolized antigen challenge in guinea pigs after peroral administration; assay type: functional
[6] = target: Mu-type opioid receptor (Homo sapiens, UniProt P35372); assay: Inhibitory concentration against Opioid receptor mu 1
[7] = target: T4, Adrenergic receptor alpha-2 (Homo sapiens, UniProt P08913+P18825+P18089); assay: Inhibitory concentration against Alpha-2 adrenergic receptor; assay type: protein assay
T4 sequence (P08913 whole entry): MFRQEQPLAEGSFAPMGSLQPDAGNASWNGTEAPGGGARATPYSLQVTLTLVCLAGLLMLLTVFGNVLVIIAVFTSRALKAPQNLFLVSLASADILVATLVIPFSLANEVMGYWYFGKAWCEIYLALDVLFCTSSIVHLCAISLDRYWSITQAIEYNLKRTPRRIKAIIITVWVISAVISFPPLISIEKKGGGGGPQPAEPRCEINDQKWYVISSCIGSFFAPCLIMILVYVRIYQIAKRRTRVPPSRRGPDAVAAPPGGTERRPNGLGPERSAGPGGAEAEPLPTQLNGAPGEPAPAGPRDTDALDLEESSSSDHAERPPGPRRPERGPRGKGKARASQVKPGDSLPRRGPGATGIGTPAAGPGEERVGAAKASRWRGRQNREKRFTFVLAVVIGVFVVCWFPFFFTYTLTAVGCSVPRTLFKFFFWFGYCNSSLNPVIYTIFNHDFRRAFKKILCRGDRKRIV
T4 sequence (P18825 whole entry): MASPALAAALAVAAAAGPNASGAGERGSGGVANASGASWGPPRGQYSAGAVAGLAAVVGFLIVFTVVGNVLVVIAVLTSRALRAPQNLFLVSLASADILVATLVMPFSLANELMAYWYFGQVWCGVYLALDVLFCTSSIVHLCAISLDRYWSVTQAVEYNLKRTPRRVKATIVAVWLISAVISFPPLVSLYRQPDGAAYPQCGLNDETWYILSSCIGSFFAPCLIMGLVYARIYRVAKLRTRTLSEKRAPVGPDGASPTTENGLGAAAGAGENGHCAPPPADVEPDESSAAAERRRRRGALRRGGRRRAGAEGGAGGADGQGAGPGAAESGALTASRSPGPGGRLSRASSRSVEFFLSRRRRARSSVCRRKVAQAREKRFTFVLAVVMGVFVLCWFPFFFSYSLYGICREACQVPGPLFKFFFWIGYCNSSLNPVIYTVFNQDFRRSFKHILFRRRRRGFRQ
T4 sequence (P18089 whole entry): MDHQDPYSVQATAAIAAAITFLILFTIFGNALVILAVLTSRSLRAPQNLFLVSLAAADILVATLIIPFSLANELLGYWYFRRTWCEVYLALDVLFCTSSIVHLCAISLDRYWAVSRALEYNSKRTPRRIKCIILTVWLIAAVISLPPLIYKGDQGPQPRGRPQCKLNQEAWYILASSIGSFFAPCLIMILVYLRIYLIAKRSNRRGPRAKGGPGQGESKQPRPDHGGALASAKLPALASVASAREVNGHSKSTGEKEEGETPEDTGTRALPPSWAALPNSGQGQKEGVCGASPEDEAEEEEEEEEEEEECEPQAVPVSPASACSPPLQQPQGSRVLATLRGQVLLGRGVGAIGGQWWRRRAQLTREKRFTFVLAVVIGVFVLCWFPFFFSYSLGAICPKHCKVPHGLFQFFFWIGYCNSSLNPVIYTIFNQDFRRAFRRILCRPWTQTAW

[8] = tested on: Cavia porcellus; assay: In vivo bronchoprotective effect against PAF induced bronchoconstriction in guinea pigs after intravenous administration; assay type: functional
[9] = target: Serotonin 2 (5-HT2) receptor (Homo sapiens, UniProt P41595+P28223+P28335); assay: Inhibitory concentration against 5-hydroxytryptamine 2 receptor; assay type: protein assay
[10] = target: GABA-A receptor; anion channel; assay: Inhibition of Gamma-aminobutyric acid receptor; assay type: protein-complex assay
[11] = target: D(2) dopamine receptor (Homo sapiens, UniProt P14416); assay: Inhibitory concentration against Dopamine receptor D2
[12] = target: Muscarinic acetylcholine receptor; assay: Inhibitory concentration against muscarinic receptor; assay type: protein assay
[13] = Inhibitory concentration against 5-hydroxytryptamine 1 receptor
[14] = tested on: Cavia porcellus; assay: In vivo bronchoprotective effect against LTD4 induced bronchoconstriction in guinea pigs after intravenous administration; assay type: functional
[15] = target: Adrenergic receptor beta (Homo sapiens, UniProt P08588+P07550+P13945); assay: Inhibitory concentration against Beta adrenergic receptor; assay type: protein assay
[16] = target: T3, Cysteinyl leukotriene receptor 1; assay: Displacement of [3H]leukotriene D4 (LTD4) from receptor in guinea pig lung membranes; assay type: cell membranes, Membrane
[17] = tested on: Cavia porcellus; assay: In vivo bronchoprotective effect against […] induced bronchoconstriction in guinea pigs after intravenous administration; assay type: functional

Sequence of Mu-type opioid receptor (P35372 whole entry): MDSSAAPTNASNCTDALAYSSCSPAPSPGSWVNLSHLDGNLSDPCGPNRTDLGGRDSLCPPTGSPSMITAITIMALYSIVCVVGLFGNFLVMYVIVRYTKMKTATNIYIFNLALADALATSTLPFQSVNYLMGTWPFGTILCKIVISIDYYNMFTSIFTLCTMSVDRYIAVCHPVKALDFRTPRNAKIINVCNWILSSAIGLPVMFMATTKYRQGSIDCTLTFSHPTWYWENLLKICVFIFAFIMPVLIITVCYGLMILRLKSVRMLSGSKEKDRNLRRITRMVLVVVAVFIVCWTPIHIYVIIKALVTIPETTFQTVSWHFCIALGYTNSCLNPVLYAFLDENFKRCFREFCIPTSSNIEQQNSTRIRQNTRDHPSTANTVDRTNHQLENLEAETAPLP
Sequence of D(2) dopamine receptor (P14416 whole entry): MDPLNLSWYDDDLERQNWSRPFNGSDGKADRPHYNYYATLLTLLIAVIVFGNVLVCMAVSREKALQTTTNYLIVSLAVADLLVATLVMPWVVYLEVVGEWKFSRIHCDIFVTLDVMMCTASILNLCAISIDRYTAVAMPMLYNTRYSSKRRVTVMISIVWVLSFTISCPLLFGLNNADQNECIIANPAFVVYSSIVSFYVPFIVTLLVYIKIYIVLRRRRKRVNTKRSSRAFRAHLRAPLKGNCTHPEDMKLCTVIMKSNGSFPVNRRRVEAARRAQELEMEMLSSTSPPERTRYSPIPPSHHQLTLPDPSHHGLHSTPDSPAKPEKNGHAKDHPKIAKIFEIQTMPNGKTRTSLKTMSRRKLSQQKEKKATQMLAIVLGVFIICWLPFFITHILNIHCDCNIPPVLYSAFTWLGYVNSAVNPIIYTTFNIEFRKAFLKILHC
Sequence of Histamine H1 receptor (P35367 whole entry): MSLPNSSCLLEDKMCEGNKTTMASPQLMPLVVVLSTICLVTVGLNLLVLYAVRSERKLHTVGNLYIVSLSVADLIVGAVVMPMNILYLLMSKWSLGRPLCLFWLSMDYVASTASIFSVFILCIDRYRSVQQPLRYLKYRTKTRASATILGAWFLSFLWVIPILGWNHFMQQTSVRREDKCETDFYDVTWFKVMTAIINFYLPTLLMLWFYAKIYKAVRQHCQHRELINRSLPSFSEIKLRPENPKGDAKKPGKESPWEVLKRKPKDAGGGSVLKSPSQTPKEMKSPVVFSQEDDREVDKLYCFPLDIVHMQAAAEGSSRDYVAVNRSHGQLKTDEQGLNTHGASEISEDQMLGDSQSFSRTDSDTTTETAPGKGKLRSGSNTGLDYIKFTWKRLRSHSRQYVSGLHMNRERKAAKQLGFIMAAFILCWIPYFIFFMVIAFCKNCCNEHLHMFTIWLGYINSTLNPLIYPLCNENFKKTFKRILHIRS

Compound | IC50 [1] [µM] | IC50 [2] [µM] | IC50 [3] [µM] | Ki [4] [µM] | ED50 [5] [mg/kg] | IC50 [6] [µM] | IC50 [7] [µM] | ED50 [8] [mg/kg] | IC50 [9] [µM] | IC50 [10] [µM] | IC50 [11] [µM] | IC50 [12] [µM] | IC50 [13] [µM] | ED50 [14] [mg/kg] | IC50 [15] [µM] | Ki [16] [µM] | ED50 [17] [mg/kg]
Cc1nc2cnccc2n1-c1ccc(OCc2cccc(/C=C/c3ccc4ccc(Cl)cc4n3)c2)cc1 | > 10 | > 10 | > 10 | 0.02 | 1.7 | > 10 | > 10 | 0.26 | > 10 | > 10 | > 10 | > 10 | > 10 | 0.27 | > 10 |  | 
Cc1nc2cnccc2n1-c1ccc(OCc2cccc(/C=C/c3nc4cc(F)ccc4s3)c2)cc1 | > 10 | > 10 | > 10 |  | 1.8 | > 10 | > 10 |  | > 10 | > 10 | > 10 | > 10 | > 10 | 0.46 | > 10 | 0.034 | 0.16
CCOC(=O)C1=C(c2ccc(-n3c(C)nc4cnccc43)cc2)NC(C)=C(C(=O)Nc2ccccn2)C1c1ccccc1Cl (configuration not stated) |  |  |  |  | 1.9 |  |  |  |  |  |  |  |  |  |  | > 30 | 0.33
Cc1nc2cnccc2n1-c1ccc(OCc2cccc(/C=C/c3ccc4ccccc4n3)c2)cc1 |  |  |  |  |  |  |  |  |  |  |  |  |  |  |  | 0.073 | 
COc1cc(C(=O)NS(=O)(=O)c2ccccc2C)ccc1Cc1cn(C)c2ccc(NC(=O)OC3CCCC3)cc12 [ZAFIRLUKAST] | > 10 | > 10 |  |  | 3.5 | > 10 |  |  |  | > 10 | > 10 |  |  | 0.21 | > 10 |  | 
